Measurements from ChEMBL document CHEMBL1136247, “Alpha-keto amides as inhibitors of histone deacetylase” (Bioorg Med Chem Lett, 2003).

Assays:
[1] = target: Histone deacetylase (HDAC1 and HDAC2) (Homo sapiens, UniProt Q13547+Q92769); assay: Inhibitory activity against mixture of histone deacetylase 1 (HDAC1) and histone deacetylase 2 (HDAC2) from nuclear extraction of K562 erythroleukemia cells.
HT-1080 = assay: Compound was tested for inhibition of proliferation of HT1080 cells; type: functional, cell-based; conditions: Homo sapiens
MDA-MB-435 = assay: Compound was tested for inhibition of proliferation of MDA-435 cells; type: functional, cell-based; conditions: Homo sapiens

Row | SMILES | IC50 [1] [nM] | IC50 (HT-1080) [nM] | IC50 (MDA-MB-435) [nM]
1 | CNC(=O)C(=O)CCCCCCC(=O)Nc1ccc2ccccc2c1 | 9.4 | 17000 | 22000
2 | CNC(=O)C(=O)CCCCCCC(=O)Nc1nc(-c2ccc(OC)cc2)cs1 | 9.1 | 2700 | 5800
3 | CNC(=O)C(=O)CCCCCO/N=C\c1ccc(-c2ccccc2)cc1 | 853 | – | –
4 | CNC(=O)C(=O)CCCCCCSc1ccc(-c2ccccc2)cc1 | 526 | – | –
5 | CN(C)C(=O)C(=O)CCCCCCOc1ccc(-c2ccccc2)cc1 | > 5 | – | –
6 | CCNC(=O)C(=O)CCCCCCOc1ccc(-c2ccccc2)cc1 | 4.9 | – | –
7 | CNC(=O)C(=O)CCCCCCC(=O)Nc1ccc(-c2ccccc2)cc1 | 201 | – | –
8 | CNC(=O)C(=O)CCCCCCNS(=O)(=O)c1ccc(-c2ccccc2)cc1 | 241 | – | –
9 | COC(=O)C(=O)CCCCCCCOc1ccc(-c2ccccc2)cc1 | 0.109 | – | –
10 | COC(=O)C(=O)CCCCCCOc1ccc(-c2ccccc2)cc1 | 0.062 | – | –
11 | CNC(=O)C(=O)CCCCCCC(=O)Nc1ccc2cc[nH]c2c1 | 18 | 3400 | 4500
12 | CNC(=O)C(=O)CCCCCCC(=O)Nc1ccccc1 | 338 | – | –
13 | CNC(=O)C(=O)C#CCCCCOc1ccc(-c2ccccc2)cc1 | > 1000 | – | –
14 | CNC(=O)C(=O)CCCCCCS(=O)(=O)c1ccc(-c2ccccc2)cc1 | 143 | – | –
15 | CNC(=O)C(=O)CCCCCCOc1ccc(-c2ccccc2)cc1 | 0.11 | – | –
16 | CNC(=O)C(=O)COCCCCOc1ccc(-c2ccccc2)cc1 | > 10000 | – | –
17 | CNC(=O)C(=O)CCCCCCC(=O)Nc1nc(-c2ccccc2)cs1 | 11 | 1200 | 3100
18 | CN(C)CCNC(=O)C(=O)CCCCCCOc1ccc(-c2ccccc2)cc1 | > 50 | – | –
19 | CNC(=O)C(=O)CCCCCCC(=O)Nc1nc2ccccc2s1 | 133 | 13000 | 14000
20 | CNC(=O)C(=O)CCCCCCC(=O)Nc1cnc2ccccc2c1 | 9.5 | 2900 | 4000
21 | O=C(O)C(=O)CCCCCCOc1ccc(-c2ccccc2)cc1 | 3.7 | – | –
22 | COC(=O)C(=O)CCCCCOc1ccc(-c2ccccc2)cc1 | 0.082 | – | –
23 | CNC(=O)C(=O)CCCCCCC(=O)Nc1nc(-c2ccc(CCN(C)C)cc2)cs1 | 3.1 | 120 | 160
24 | NC(=O)C(=O)CCCCCCOc1ccc(-c2ccccc2)cc1 | > 50 | – | –
25 | CNC(=O)C(=O)CCCCCCC(=O)Nc1nc(-c2ccncc2)cs1 | – | 670 | 2000
26 | CNC(=O)C(=O)CCCCCCC(=O)Nc1nc(-c2ccc3c(c2)CCCC3)cs1 | 1.4 | > 50000 | > 50000
27 | CNC(=O)C(=O)CCCCCCNC(=O)c1cccc(-c2ccccc2)c1 | 21 | – | –
28 | CNC(=O)C(=O)CCCCCCC(=O)Nc1cccc(Oc2ccccc2)c1 | 1041 | 35000 | 39000
29 | O=C(O)CNC(=O)C(=O)CCCCCCOc1ccc(-c2ccccc2)cc1 | > 50 | – | –
30 | CNC(=O)C(=O)CCCCCCC(=O)Nc1cccc(-c2ccccc2)c1 | 3.7 | – | –
